Data on seven compounds can be found in ChEMBL document CHEMBL5523679, “Discovery of 1,2,3-triazole incorporated indole-piperazines as potent antitubercular agents: Design, synthesis, in vitro biological evaluation, molecular docking and ADME studies” (Bioorg Med Chem, 2024).

In series [1] the test system is Mycobacterium tuberculosis. As to the kind of experiment: Antimycobacterial activity against Mycobacterium tuberculosis H37Rv assessed as bacterial growth inhibition by microplate Alamar blue assay. The format is functional.
The subject of series [2] is Escherichia coli. In words: Antibacterial activity against Escherichia coli assessed as inhibition zone at 75 ug/ml by diffusion method. It is filed as functional. Conditions: read-out: IZ.
Series [3] has as its system Escherichia coli. In words: Antibacterial activity against Escherichia coli assessed as inhibition zone at 50 ug/ml by diffusion method. Conditions: read-out: IZ. It is filed as functional.
For series [4], the system named is Staphylococcus aureus. As to the kind of experiment: Antibacterial activity against Staphylococcus aureus assessed as inhibition zone at 75 ug/ml by diffusion method. The format is functional. Conditions: read-out: IZ.
The subject of series [5] is Staphylococcus aureus. As to the kind of experiment: Antibacterial activity against Staphylococcus aureus assessed as inhibition zone at 50 ug/ml by diffusion method. The format is functional. Conditions: read-out: IZ.
For series [6], the system named is Staphylococcus aureus. In words: Antibacterial activity against Staphylococcus aureus assessed as inhibition zone at 25 ug/ml by diffusion method. The format is functional. Conditions: read-out: IZ.
Series [7] deals with Pseudomonas aeruginosa. In words: Antibacterial activity against Pseudomonas aeruginosa assessed as inhibition zone at 75 ug/ml by diffusion method. Conditions: read-out: IZ. The format is functional.
For series [8], the system named is Pseudomonas aeruginosa. In words: Antibacterial activity against Pseudomonas aeruginosa assessed as inhibition zone at 50 ug/ml by diffusion method. It is filed as functional. Conditions: read-out: IZ.
Series [9] concerns Pseudomonas aeruginosa. In words: Antibacterial activity against Pseudomonas aeruginosa assessed as inhibition zone at 25 ug/ml by diffusion method. It is filed as functional. Conditions: read-out: IZ.
The nature of series [10]: Cytotoxicity against African green monkey Vero cells measured after 72 hrs by MTT assay. The format is toxicity, cell-based. Conditions: chlorocebus sabaeus.
A short description of series [11]: Selectivity index, ratio of CC50 for African green monkey Vero cells to MIC for Mycobacterium tuberculosis H37Rv. It is filed as toxicity. Conditions: read-out: Selectivity Index.
Series [12] can be described thus: Cytotoxicity against African green monkey Vero cells assessed as inhibition of cell growth at 6.25 ug/ml measured after 72 hrs by MTT assay relative to control. The format is toxicity, cell-based. Conditions: chlorocebus sabaeus, at 6.25 µg/mL.
Series [13] concerns Escherichia coli. As to the kind of experiment: Antibacterial activity against Escherichia coli assessed as inhibition zone at 25 ug/ml by diffusion method. It is filed as functional. Conditions: read-out: IZ.

≈ marks a conversion by molar mass, not a printed value.

For orientation: MIC means the lowest concentration that inhibits growth of the organism. In general, CC50 refers to the concentration that lowers cell viability or growth by half. What is called inhibition is the drop in the measured response relative to a control, in per cent. In the case of `O=C(CCc1cn(Cc2cn(Cc3ccc(F)cc3)nn2)c2ccccc12)N1CCN(C(=O)c2ccnc(Cl)c2)CC1`, the minimal inhibitory concentration (MIC) in [1] was 2.7 µM. Moreover, the figures for the zone of inhibition at 75 µg/mL with Escherichia coli [2], with Staphylococcus aureus [4] and in the series with Pseudomonas aeruginosa [7] were 20 mm, 18 mm and 15 mm, respectively. Moreover, the zone of inhibition at 50 µg/mL in the series with Escherichia coli [3] is 18 mm; with Staphylococcus aureus [5] it was 13 mm; in the series on Pseudomonas aeruginosa [8], 13 mm. For the same compound, the values for the zone of inhibition at 25 µg/mL in the series on Staphylococcus aureus [6] and in the series with Pseudomonas aeruginosa [9] were 13 mm and 10 mm, respectively. Besides, the CC50 at 72 h in series [10] worked out at 1080 µg/mL (≈ 1840 µM). In series [11], the selectivity ratio stood at 673. For the same compound, in series [12], the inhibition at 72 h, 6.25 ug/ml turned out to be 11.8%.

Consider `O=C(CCc1cn(Cc2cn(Cc3ccc(F)cc3)nn2)c2ccccc12)N1CCN(C(=O)c2ccccc2C(F)(F)F)CC1`, for which, in series [1], the minimal inhibitory concentration (MIC) was found to be 5 µM. Also, the zone of inhibition at 75 µg/mL came to 25 mm in the series with Escherichia coli [2], 20 mm with Staphylococcus aureus [4] and 18 mm in the series with Pseudomonas aeruginosa [7]. For the same compound, the zone of inhibition at 50 µg/mL in the series with Escherichia coli [3] is 23 mm; with Staphylococcus aureus [5], 13 mm; with Pseudomonas aeruginosa [8] it was 15 mm. For the same compound, the zone of inhibition at 25 µg/mL in the series with Escherichia coli [13] is 15 mm; with Pseudomonas aeruginosa [9], 10 mm. In [10], this compound had a CC50 at 72 h of 837 µg/mL (≈ 1350 µM). The selectivity ratio in [11] is 268. In addition, the inhibition at 72 h, 6.25 ug/ml in [12] worked out at 5.4%.

As for `O=C(CCc1cn(Cc2cn(Cc3ccc(F)cc3)nn2)c2ccccc12)N1CCN(S(=O)(=O)c2ccccc2)CC1`, the minimum inhibitory concentration (MIC) in [1] was found to be 10.6 µM. For the same compound, the zone of inhibition at 75 µg/mL in the series with Escherichia coli [2] was 20 mm; in the series on Staphylococcus aureus [4] it was 20 mm; in the series with Pseudomonas aeruginosa [7] it was 15 mm. Also, the figures for the zone of inhibition at 50 µg/mL with Escherichia coli [3], in the series on Staphylococcus aureus [5] and in the series on Pseudomonas aeruginosa [8] were 15 mm, 15 mm and 13 mm, respectively. Also, the zone of inhibition at 25 µg/mL with Escherichia coli [13] is 13 mm; in the series with Staphylococcus aureus [6], 9 mm; with Pseudomonas aeruginosa [9], 10 mm. Besides, the half-maximal cytotoxic concentration (CC50) at 72 h in series [10] came out at 1540 µg/mL (≈ 2630 µM). Further, the selectivity ratio in series [11] was determined as 247. The inhibition at 72 h, 6.25 ug/ml in series [12] was 11.1%.

`O=C(CCc1cn(Cc2cn(Cc3ccc(F)cc3)nn2)c2ccccc12)N1CCN(C(=O)c2ccncc2F)CC1`: the minimum inhibitory concentration (MIC) in series [1] turned out to be 5.5 µM. The results for the zone of inhibition at 75 µg/mL in the series on Escherichia coli [2], in the series on Staphylococcus aureus [4] and with Pseudomonas aeruginosa [7] were 20 mm, 18 mm and 18 mm, respectively. The zone of inhibition at 50 µg/mL in the series on Escherichia coli [3], in the series on Staphylococcus aureus [5] and in the series with Pseudomonas aeruginosa [8] was 15 mm each time. Also, the zone of inhibition at 25 µg/mL with Staphylococcus aureus [6] and in the series on Pseudomonas aeruginosa [9] was 10 mm throughout. In addition, the CC50 at 72 h in series [10] was 882 µg/mL (≈ 1550 µM). Besides, in series [11], the selectivity ratio amounted to 283. In series [12], the inhibition at 72 h, 6.25 ug/ml is 8.5%.

Take `Cc1ccc(C(=O)N2CCN(C(=O)CCc3cn(Cc4cn(Cc5ccc(F)cc5)nn4)c4ccccc34)CC2)cc1`: the MIC in series [1] worked out at 5.5 µM. For the same compound, the zone of inhibition at 75 µg/mL with Escherichia coli [2] came out at 25 mm; with Staphylococcus aureus [4] it was 20 mm; in the series on Pseudomonas aeruginosa [7] it was 13 mm. Further, the zone of inhibition at 50 µg/mL came to 20 mm with Escherichia coli [3], 13 mm in the series on Staphylococcus aureus [5] and 10 mm in the series with Pseudomonas aeruginosa [8]. Further, the zone of inhibition at 25 µg/mL in the series on Escherichia coli [13] was found to be 15 mm; with Staphylococcus aureus [6], 13 mm. Further, the midpoint of cytotoxicity in [10], the CC50 at 72 h, lay at 1320 µg/mL (≈ 2340 µM). In addition, in [11], the selectivity ratio is 424. Besides, the inhibition at 72 h, 6.25 ug/ml in [12] was 9.4%.

Consider `O=C(CCc1cn(Cc2cn(Cc3ccc(F)cc3)nn2)c2ccccc12)N1CCN(S(=O)(=O)c2ccc(F)cc2)CC1`, for which, in series [1], the minimal inhibitory concentration (MIC) stood at 2.6 µM. For the same compound, the zone of inhibition at 75 µg/mL with Escherichia coli [2] is 25 mm; in the series on Staphylococcus aureus [4], 20 mm; in the series on Pseudomonas aeruginosa [7], 15 mm. Also, the zone of inhibition at 50 µg/mL in the series with Escherichia coli [3] came to 20 mm; in the series on Staphylococcus aureus [5] it was 18 mm; in the series on Pseudomonas aeruginosa [8] it was 10 mm. Further, the zone of inhibition at 25 µg/mL in the series on Escherichia coli [13] and in the series with Staphylococcus aureus [6] was 13 mm in each case. In [10], this compound showed a CC50 at 72 h of 1700 µg/mL (≈ 2810 µM). Moreover, the selectivity ratio in series [11] came out at 1060. In addition, the inhibition at 72 h, 6.25 ug/ml in series [12] worked out at 11.9%.

In the case of `COc1ccc(C(=O)N2CCN(C(=O)CCc3cn(Cc4cn(Cc5ccc(F)cc5)nn4)c4ccccc34)CC2)cc1`, the minimum inhibitory concentration (MIC) in series [1] was 2.7 µM. In addition, the zone of inhibition at 75 µg/mL came to 25 mm with Escherichia coli [2], 20 mm in the series with Staphylococcus aureus [4] and 18 mm with Pseudomonas aeruginosa [7]. Besides, the results for the zone of inhibition at 50 µg/mL in the series with Escherichia coli [3], in the series with Staphylococcus aureus [5] and in the series with Pseudomonas aeruginosa [8] were 23 mm, 18 mm and 13 mm, respectively. The zone of inhibition at 25 µg/mL worked out at 15 mm in the series with Escherichia coli [13], 12 mm in the series with Staphylococcus aureus [6] and 9 mm in the series with Pseudomonas aeruginosa [9]. Besides, in series [10], the CC50 at 72 h is 1470 µg/mL (≈ 2520 µM). In addition, the selectivity ratio in [11] is 916. Moreover, in series [12], the inhibition at 72 h, 6.25 ug/ml is 8.8%.
